Source: PubChem BioAssay (NCI)
Several values for one entry are separate records, joined by “and”; a condition that tells them apart may be missing. Equal values may be shown once.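 How tested: cells in 96-well plates exposed to compound for 48 hours at five concentrations. GI50 is the concentration that inhibits growth by half. TGI: concentration producing complete growth inhibition.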

Key:
Experiment in all cases: NCI anticancer screen, dose series, 48 h
OVCAR-3 ovarian = system: OVCAR-3 ovarian
PC-3 prostate = system: PC-3 prostate
K-562 leukemia = system: K-562 leukemia
T-47D breast = system: T-47D breast
DU-145 prostate = system: DU-145 prostate
NCI/ADR-RES ovarian = system: NCI/ADR-RES ovarian
COLO 205 colon = system: COLO 205 colon
A549 NSCLC = system: A549 NSCLC
MDA-MB-435 = system: MDA-MB-435
RPMI-8226 leukemia = system: RPMI-8226 leukemia

| Compound | GI50 (OVCAR-3 ovarian) | TGI (OVCAR-3 ovarian) | GI50 (PC-3 prostate) | TGI (PC-3 prostate) | GI50 (K-562 leukemia) | TGI (K-562 leukemia) | GI50 (T-47D breast) | TGI (T-47D breast) | GI50 (DU-145 prostate) | TGI (DU-145 prostate) | GI50 (NCI/ADR-RES ovarian) | TGI (NCI/ADR-RES ovarian) | GI50 (COLO 205 colon) | TGI (COLO 205 colon) | GI50 (A549 NSCLC) | TGI (A549 NSCLC) | GI50 (MDA-MB-435) | TGI (MDA-MB-435) | GI50 (RPMI-8226 leukemia) | TGI (RPMI-8226 leukemia) |
| --- | --- | --- | --- | --- | --- | --- | --- | --- | --- | --- | --- | --- | --- | --- | --- | --- | --- | --- | --- | --- |
| O=C(NCCNc1nccc(-c2c(-c3ccc(F)cc3)nc3sccn23)n1)Nc1cccc(C(F)(F)F)c1 | 17.7 µM | 94.5 µM | 3.93 µM | 42.3 µM | 6.14 µM | > 100 µM | 2.15 µM | 8.48 µM | 11.6 µM | 30.9 µM | 4.38 µM | 64.2 µM | 2.57 µM | 7.73 µM | 5.51 µM | 24.5 µM | 3.12 µM | 11.4 µM | 3.52 µM | 34 µM |
| Nc1ncnc2occ(-c3ccc(NC(=O)Nc4cc(C(F)(F)F)ccc4F)cc3)c12 | 5.44 µM and 3.61 µM | 12.1 µM and 9.52 µM | 5.92 µM and 5.35 µM | 15.8 µM and 16.1 µM | 2.18 µM and 0.972 µM | 19 µM and > 25 µM | 6.42 µM and 3.5 µM | 16.9 µM and 10.9 µM | 7.01 µM and 2.68 µM | 21.1 µM and 9.28 µM | 5.44 µM and 3.09 µM | 20.2 µM and 13.3 µM | 5.27 µM and 3.74 µM | 9.88 µM and 7.13 µM | 6.44 µM and 3.16 µM | 18.8 µM and 11.5 µM | 4.35 µM and 2.37 µM | 11.3 µM and 5.59 µM | 6.29 µM and 5.04 µM | 17.7 µM and 16.2 µM |
| COc1cc2c3c(n(CCCNC(C)(C)CO)c(=O)c2cc1OC)-c1cc2c(cc1C3=O)OCO2 | 15.1 µM | 39.8 µM | 2.75 µM | 16.3 µM | 2.82 µM | > 55.7 µM | 3.47 µM | 47.6 µM | 0.819 µM | 16.3 µM | 3.28 µM | 28.3 µM | 12.8 µM | > 67.5 µM | 1.5 µM | 23.9 µM | 4.52 µM | > 75.5 µM | 0.0169 µM | 0.464 µM |
| O=C(O)c1cc(C(=O)C(=O)c2cc(C(=O)O)c(O)c3ccccc23)c2ccccc2c1O |  | > 100 µM |  | > 100 µM |  | > 100 µM |  | > 100 µM |  | > 100 µM |  | > 100 µM |  | > 100 µM |  | > 100 µM |  | > 100 µM |  | > 100 µM |
| COc1cc2cc(Oc3ccc(NC(=O)Nc4ccc(F)c(C(F)(F)F)c4)cc3)c(C)nc2cc1OCCN1CCOCC1 | 2.94 µM | 13.6 µM | 1.44 µM | 10.1 µM | 0.88 µM | 10.3 µM | 1.91 µM | 32.1 µM | 3.5 µM | 15.2 µM | 2.56 µM | 12.1 µM | 1.87 µM | 4.28 µM | 2.57 µM | 34.3 µM | 1.91 µM | 3.9 µM | 1.12 µM | 4.25 µM |
| CCCC(c1cc(C(C)(C)C)c(O)cc1C)c1cc(C(C)(C)C)c(O)cc1C |  | 3.93 µM |  | 8.78 µM |  | 6.43 µM |  | 8.92 µM |  | 14.7 µM |  | 12.1 µM |  | 5.4 µM |  | 9.78 µM |  | 7.18 µM |  | 5.77 µM |
| Cc1cc(S(=O)(=O)Nc2n[nH]c(-c3ccc(Cl)cc3)c2C#N)c(S)cc1Cl | > 100 µM | > 100 µM | > 100 µM | > 100 µM | > 100 µM | > 100 µM | > 100 µM | > 100 µM | > 100 µM | > 100 µM | > 100 µM | > 100 µM | > 100 µM | > 100 µM | > 100 µM | > 100 µM | > 100 µM | > 100 µM | > 100 µM | > 100 µM |
